Patent publication US5993889A, “Trehalose phosphorylase, its preparation and use” (Kabushiki Kaisha Hayashibara Seibutsu Kagaku Kenkyujo, priority 1996, dated 1999)

Each compound was assayed against T1, trehalose phosphorylase (Thermoanaerobacter brockii, UniProt Q8L164) (assay: Substrate specificity for saccharide-hydrolyzing reaction by trehalose phosphorylase (TLC)). Settings: saccharide 2 w/v %, 10 units/g saccharide purified enzyme, 5 mM disodium hydrogenphosphate, 60° C., pH 7.0, 24 hours.
T1 construct: recombinant E. coli enzyme (pTTP4) equivalent
T1 sequence (Q8L164 2-774): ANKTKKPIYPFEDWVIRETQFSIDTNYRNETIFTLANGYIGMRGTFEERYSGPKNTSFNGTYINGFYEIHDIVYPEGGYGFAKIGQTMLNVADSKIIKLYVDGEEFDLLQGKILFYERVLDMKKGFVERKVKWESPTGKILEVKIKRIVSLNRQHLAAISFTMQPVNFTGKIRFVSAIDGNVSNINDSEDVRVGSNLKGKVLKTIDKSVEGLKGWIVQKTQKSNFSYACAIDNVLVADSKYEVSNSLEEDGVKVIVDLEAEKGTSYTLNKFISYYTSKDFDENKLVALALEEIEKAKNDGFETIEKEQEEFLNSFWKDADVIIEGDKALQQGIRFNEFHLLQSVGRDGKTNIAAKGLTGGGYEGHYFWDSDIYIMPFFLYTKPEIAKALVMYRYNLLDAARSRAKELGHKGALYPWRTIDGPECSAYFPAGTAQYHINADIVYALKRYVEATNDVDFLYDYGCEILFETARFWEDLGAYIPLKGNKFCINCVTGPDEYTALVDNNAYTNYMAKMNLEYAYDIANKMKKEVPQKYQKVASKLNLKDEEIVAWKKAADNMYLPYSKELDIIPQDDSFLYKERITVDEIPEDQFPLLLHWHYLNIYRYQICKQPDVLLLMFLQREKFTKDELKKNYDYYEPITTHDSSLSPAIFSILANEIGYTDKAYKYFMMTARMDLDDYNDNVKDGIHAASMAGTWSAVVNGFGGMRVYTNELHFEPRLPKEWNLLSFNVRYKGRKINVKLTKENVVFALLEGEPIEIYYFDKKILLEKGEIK
Assay type: biochemical, Thermoanaerobium brockii
Set-up: key: +: Hydrolyzed by the action of the present trehalose phosphorylase.; -: Not hydrolyzed by the action of the present trehalose phosphorylase
Description: An aqueous solution of a saccharide selected from D-glucose, maltose, sucrose, lactose, trehalose, neotrehalose, cellobiose, melibiose, kojibiose, isomaltose, sophorose, gentibiose, nigerose, laminaribiose, maltopentaose, and 4-O-α-D-glucosyltrehalose was mixed with 10 units/g saccharide, d.s.b., of a purified trehalose phosphorylase obtained by the method in Experiment 2, and incubated in the presence of 5 mM disodium hydrogenphosphate at 60° C. and pH 7.0 for 24 hours. The saccharide concentration of each reaction solution was 2 w/v %. Pre-reaction solutions and post-reaction mixtures were subjected to thin layer chromatography (hereinafter abbreviated as "TLC") using "KIESELGEL 60 (20×20 cm)", an aluminum plate for TLC commercialized by Merck & Co., Inc., Rahway, USA. Samples were developed once at ambient temperature on the plate using 1-butanol/pyridine/water (=7:3:1 by volume) as a developing solvent system, and the plate was sprayed with 20 v/v % sulfuric acid/methanol solution, and heated at 110° C. for about 10 min for coloration. Comparing spots of the solutions and mixtures detected on the plates, it was checked whether the enzyme acted on the saccharides.

SMILES | Decomposition
OC[C@H]1O[C@H](O[C@H]2O[C@H](CO)[C@@H](O[C@H]3O[C@H](CO)[C@@H](O)[C@H](O)[C@H]3O)[C@H](O)[C@H]2O)[C@H](O)[C@@H](O)[C@@H]1O [4-O-α-D-glucosyltrehalose] | -
OC[C@H]1O[C@@H](O[C@H]2[C@H](O)[C@@H](O)C(O)O[C@@H]2CO)[C@H](O)[C@@H](O)[C@@H]1O (stereo partly drawn) [Cellobiose] | -
OC[C@H]1OC(O)[C@H](O)[C@@H](O)[C@@H]1O (stereo partly drawn) [D-Glucose] | -
OC[C@H]1O[C@@H](OC[C@H]2OC(O)[C@H](O)[C@@H](O)[C@@H]2O)[C@H](O)[C@@H](O)[C@@H]1O (stereo partly drawn) [Gentibiose] | -
OC[C@H]1O[C@H](OC[C@H]2OC(O)[C@H](O)[C@@H](O)[C@@H]2O)[C@H](O)[C@@H](O)[C@@H]1O (stereo partly drawn) [Isomaltose] | -
OC[C@H]1O[C@H](O[C@H]2C(O)O[C@H](CO)[C@@H](O)[C@@H]2O)[C@H](O)[C@@H](O)[C@@H]1O (stereo partly drawn) [Kojibiose] | -
OC[C@H]1O[C@@H](O[C@H]2[C@H](O)[C@@H](O)C(O)O[C@@H]2CO)[C@H](O)[C@@H](O)[C@H]1O (stereo partly drawn) [Lactose] | -
OC[C@H]1O[C@@H](O[C@H]2[C@H](O)[C@@H](CO)OC(O)[C@@H]2O)[C@H](O)[C@@H](O)[C@@H]1O (stereo partly drawn) [Laminaribiose] | -
OC[C@H]1O[C@H](O[C@H]2[C@H](O)[C@@H](O)[C@@H](O[C@H]3[C@H](O)[C@@H](O)[C@@H](O[C@H]4[C@H](O)[C@@H](O)[C@@H](O[C@H]5[C@H](O)[C@@H](O)C(O)O[C@@H]5CO)O[C@@H]4CO)O[C@@H]3CO)O[C@@H]2CO)[C@H](O)[C@@H](O)[C@@H]1O (stereo partly drawn) [Maltopentaose] | -
OC[C@H]1O[C@H](O[C@H]2[C@H](O)[C@@H](O)[C@H](O)O[C@@H]2CO)[C@H](O)[C@@H](O)[C@@H]1O [Maltose] | -
OC[C@H]1O[C@H](OC[C@H]2OC(O)[C@H](O)[C@@H](O)[C@@H]2O)[C@H](O)[C@@H](O)[C@H]1O (stereo partly drawn) [Melibiose] | -
OC[C@H]1O[C@@H](O[C@H]2O[C@H](CO)[C@@H](O)[C@H](O)[C@H]2O)[C@H](O)[C@@H](O)[C@@H]1O [Neotrehalose] | -
